“Also recorded” adds a separate entry of the source.
Columns and labels:
[1] = test system: Hydra vulgaris; test: Regional ICW in Hydra (Protocol I); format: in vivo; settings: 24 μM MM; for Regional ICW upon body column stimulation: 24 h, 405 nm, 1 s
Method: FIGS. 20A-20N—MM induce ICW and muscle contraction in vivo. (a) Image of a Hydra loaded into a microfluidic chamber with anatomical regions marked. Scale bar is 100 μm and applies to (a-c). (b) MM 1 (24 μM) loaded into Hydra for 24 h. (c) A Hydra expressing GCaMP7b in endodermal epitheliomuscular cells. The stimulation regions used for Protocols I and II are marked. Protocol 1 was used for body column stimulation (1 s pulse to a 10 μm diameter circular area) to trigger regional ICW. Protocol II was used for oral region stimulation (2 s pulse to the oral region, ~1000-2000 μm^2) to trigger whole-body contraction. (d) A regional ICW in a Hydra treated with MM 1 and stimulated with 405-nm light via Protocol I. The indicated times represent the time after stimulation at which the image was taken. Scale bar applies to both images and is 100 μm. (e-i) Responses observed from Hydra treated with (e) MM 1, (f) MM 2, (g) MM 3, (h) MM 4, or (i) DMSO control (“C”) and stimulated for 1 s using Protocol I. Bold, colored traces represent the average trace (n=25 across 5 Hydra). Gray traces represent individual experiments. (j) Bar graph showing ICW response rate and (k) box-and-whisker plot showing ICW delay time of Hydra stimulated using Protocol I across MM treatment conditions (n=25 experiments across at least 5 Hydra per condition). ICW responses were defined as ΔF/F0>1. (1) Representative contraction in a Hydra treated with MM 2 and stimulated via Protocol II. Scale bar applies to both images and is 100 μm. (m) Representative GCaMP7b fluorescence trace in a Hydra treated with MM 2 and stimulated using Protocol II. (n) Bar graph showing contractile response rates across treatment conditions for Hydra stimulated for 2 s using Protocol II (at least 50 experiments across ≥5 Hydra per condition). Error bars in bar graphs represent the standard error of the mean. See Example 6 for more info on the calculation of ICW and contractile response rates. For all plots, cyan lines indicate the time of stimulus with 405-nm light (9.0×10^2 W cm^−2), during which no data was collected. * P-value<0.05, ** P-value<0.01, *** P-value<0.001, **** P-value<0.0001.
Prior to stimulation experiments, Hydra were loaded with MM by incubating with solutions containing 24 μM of MM for 24 h (FIG. 20B). Distinct stimulation protocols were employed to cause either local ICW or whole-body contraction (FIG. 20C). First, treatment of MM-loaded Hydra with pulses of laser light administered to a small region of the body column (Protocol I) caused ICW emanating from the site of stimulation (FIGS. 20D and 21). Similar to ICW evoked in vitro, these ICW propagated throughout the Hydra body column according to the degree of electrical connectivity of the stimulated cells. Distinct propagation kinetics were observed when stimulating different regions of Hydra simultaneously. Second, MM activation was used to attempt to drive whole-body Hydra contractions by administering laser stimuli to the oral region (Protocol II).
Hydra Preparation, Stimulation, and Imaging: Hydra were raised in Hydra medium containing CaCl2·2H2O, MgCl2·6H2O, KNO3, NaHCO3, and MgSO4 in deionized water at 18 °C in a light-cycled (12 h light, 12 h dark) incubator. Hydra were fed with an excess of freshly brined Artemia Nauplii (Brine Shrimp Direct, Ogden, UT, #BSEP8Z) three times a week. All experiments were performed at room temperature after starving the animals for 2 days. The transgenic line expressing GCaMP6s under the Actin promoter in neurons was generated by embryonic microinjection by the Yuste lab at Columbia University (Addgene: plasmid #102558). The transgenic line expressing GCaMP7b under the Ef1α promoter in endodermal epitheliomuscular tissue was generated by embryonic microinjection in a collaboration by the Robinson lab (Rice University) and the Juliano Lab (University of California, Davis).
Hydra were incubated with chosen MM 24 h before imaging. […]

[2] = Extinction coefficient by UV-Vis; format: physicochemical; settings: UV-Vis in spectral-grade water, 16 μM
Method: FIG. 13—Sample UV-Vis spectra of each MM taken at 16 μM in spectral-grade water.
(§1) Table 1. Properties of MM 1-4. Partition coefficients and total polar surface area were calculated using the molInspiration online calculator. milogP represents the logarithm of the partition coefficient between octanol and water, used to represent hydrophobicity (higher values are more hydrophobic). Rotation rates were provided using the thermodynamics of the thermal helix inversion step. MM structures provided for reference.

[3] = MM rotation rate (thermodynamics of the thermal helix inversion step); format: physicochemical; settings: Table 1; from thermodynamics of thermal helix inversion
Method: as §1
Effects of Rotation Speed and Directionality: The propensity for unidirectional MM to rotate and exert mechanical force on their environment depend principally on two factors: the rotation rate and the photoconversion efficiency. Both of these depend on MM structure. The rotation rate is determined by the half-life of the thermal helix inversion, which is driven by the steric interactions governing the passage of the rotor over the stator (Pollard et al., 2007). The photoconversion efficiency, also known as the quantum yield of photoisomerization, or ΦP, represents the proportion of photons absorbed by the molecule that drive molecular rotation (as opposed to fluorescence or non-radiative decay processes). ΦP is primarily influenced by the electronic structure. MM directionality can also be influenced by structure, as the driving force for unidirectional rotation depends upon the presence of a stereogenic center.

Row | Extinction Coeff @ 400 nm [2] | Rotation rate [3] | Compound | ICW delay (response) time [1] | Regional ICW upon body column stimulation [1]
1 | ~7,500 L mol^−1cm^−1 | 0.1 Hz | CC1Cc2cc(NCCN(C)C)c3ccccc3c2C1=C1c2ccccc2-c2ccccc21 (stereo not drawn) [MM 3] | 15.46 s | not significantly different from solvent-only controls
2 | ~13,000 L mol^−1cm^−1 | 3 × 10^6 Hz | CN(C)CCNc1ccc2c(c1)Sc1ccccc1C2=C1CCc2ccc3ccccc3c21 [MM 4] | 16.6 s | consistently elicited robust regional ICW; also recorded: elicited regional ICW in Hydra despite causing only weak responses in vitro

Row | Compound | Extinction Coeff @ 400 nm [2] | Rotation rate [3] | ICW delay (response) time [1] | Regional ICW upon body column stimulation [1]
3 | CC1Cc2ccc3ccccc3c2C1=C1c2ccccc2Sc2cc(NCCN(C)C)ccc21 (stereo not drawn) [MM 1] | ~11,000 L mol^−1cm^−1 | 3 × 10^6 Hz | 12.76 s | consistently elicited robust regional ICW

Reference: US20260373497A1, “MOLECULAR MACHINES STIMULATE INTERCELLULAR CALCIUM WAVES AND CAUSE MUSCLE CONTRACTION” (William Marsh Rice University, priority 2022, published 2026)
